Reference: patent US20130058998A1, “ENCAPSULATED N-ACETYLMANNOSAMINE OR N-ACETYLNEURAMINIC ACID TO INCREASE SIALYLATION” (United States of America as represented by the Secretary, …, priority 2011, published 2013)

How the values were obtained:
cultured cells = conditions: Charter et al. 2000; cited from earlier work
[1] = system: HIBM Gne M712T mutated pups; experiment: Survival of mutant HIBM Gne M712T pups after treatment; type: in vivo, mouse; conditions: for survival of mutant pups at P5: Gne M712T mutant pups, untreated 8% survived; for survival rates: orally delivered in drinking water, -/- pups
[2] = system: Gne-deficient mouse embryonic stem cells; conditions: growth medium supplemented with ManNAc; Schwarzkopf et al. 2002; cited from earlier work
[3] = oral (not liposome-embedded), addition to drinking water

Row | SMILES | incorporation of sialic acid analogs (SiaLev or SiaNAz) into cell surface glycoconjugates (cultured cells) | survival of mutant pups at P5 ([1]; intravenous (IV) injection at P1, ManNAc-Lipoplex in 2 different mouse backgrounds) | survival of mutant pups at P5 [1, 3] | survival rates [1] | sialylation of hyposialylated cells [2]
1 | CC(=O)CCC(=O)N[C@@H]1C(O)O[C@H](CO)[C@@H](O)[C@@H]1O (some centres unmarked) [ManLev, N-levulinoylmannosamine] | resulted in incorporation of the downstream sialic acid analogs | – | – | – | –
2 | CC(=O)N[C@H]1[C@@H](O)[C@H](O)[C@@H](CO)O[C@H]1O [ManNAc, N-acetyl-D-mannosamine] | – | 8% | 48% | 48% | became resialylated
3 | CC(=O)N[C@H]1[C@H]([C@H](O)[C@H](O)CO)OC(O)(C(=O)O)C[C@@H]1O (some centres unmarked) [NANA, N-acetylneuraminic acid] | – | – | 10% | 10% | –
4 | [N-]=[N+]=NCC(=O)N[C@@H]1C(O)O[C@H](CO)[C@@H](O)[C@@H]1O (some centres unmarked) [ManNAz, N-azidoacetyl-mannosamine] | resulted in incorporation of the downstream sialic acid analogs | – | – | – | –
